From PubChem BioAssay AID2060600 (Molecular Pharmacology Branch, DTP, NCI, 2025)

System: 996289-038-R-J1-PDC complex spheroid viability
Assay: Anticancer human tumor 996289-038-R-J1-PDC patient-derived colon adenocarcinoma cell line growth inhibition [CLK]
Conditions: for IC50: curve of first compound; for viability, T/C: stronger effect = lower value; active = viability on the fitted dose curve at most 10% of control; inactive = the rest
In short: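 Multi-cell-type spheroids combined patient-derived tumor cells with HUVEC endothelial cells and human mesenchymal stem cells. Paired agents were dosed in half-log steps down from about clinical Cmax, or from 10 microM where Cmax was unknown.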
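Also: spheroids exposed to the agents for 7 days before readout.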

CC(C)CC(NC(=O)C(Cc1ccccc1)NC(=O)c1cnccn1)B(O)O (centres undefined) + CN1CCN(c2cc(C(=O)Nc3cc4cc(-c5cnn(C)c5)ccc4cn3)ccn2)CC1
3.9 nM: IC50 (second compound 0.1 µM)
< 0.949 nM: IC50 (second compound 1 µM) | IC50 (second compound 3.16 µM) | IC50 (second compound 10 µM)
active: viability, T/C (second compound 0.0316 µM, first compound 0.00949 µM) 6.22% | viability, T/C (second compound 0.0316 µM, first compound 0.03 µM) 4.45% | viability, T/C (second compound 0.0316 µM, first compound 0.0949 µM) 2.91% | viability, T/C (second compound 0.0316 µM, first compound 0.3 µM) 0.26% | viability, T/C (second compound 0.1 µM, first compound 0.00949 µM) 6.36% | viability, T/C (second compound 0.1 µM, first compound 0.03 µM) 0.64% | viability, T/C (second compound 0.1 µM, first compound 0.0949 µM) 0.55% | viability, T/C (second compound 0.1 µM, first compound 0.3 µM) 0.33% | viability, T/C (second compound 0.316 µM, first compound 0.00949 µM) 2.17% | viability, T/C (second compound 0.316 µM, first compound 0.03 µM) 2.47% | viability, T/C (second compound 0.316 µM, first compound 0.0949 µM) 0.77% | viability, T/C (second compound 0.316 µM, first compound 0.3 µM) 1.41% | viability, T/C (second compound 1 µM, first compound 0.000949 µM) 2.7% | viability, T/C (second compound 1 µM, first compound 0.003 µM) 0.91% | viability, T/C (second compound 1 µM, first compound 0.00949 µM) 1.02% | viability, T/C (second compound 1 µM, first compound 0.03 µM) 0.56% | viability, T/C (second compound 1 µM, first compound 0.0949 µM) 0.24% | viability, T/C (second compound 1 µM, first compound 0.3 µM) 0.28% | viability, T/C (second compound 3.16 µM, first compound 0.000949 µM) 0.51% | viability, T/C (second compound 3.16 µM, first compound 0.003 µM) 0.34% | viability, T/C (second compound 3.16 µM, first compound 0.00949 µM) 0.26% | viability, T/C (second compound 3.16 µM, first compound 0.03 µM) 0.67% | viability, T/C (second compound 3.16 µM, first compound 0.0949 µM) 0.47% | viability, T/C (second compound 3.16 µM, first compound 0.3 µM) 0.21% | viability, T/C (second compound 10 µM, first compound 0.000949 µM) 0.41% | viability, T/C (second compound 10 µM, first compound 0.003 µM) 1.36% | viability, T/C (second compound 10 µM, first compound 0.00949 µM) 1.47% | viability, T/C (second compound 10 µM, first compound 0.03 µM) 1.13% | viability, T/C (second compound 10 µM, first compound 0.0949 µM) 0.38% | viability, T/C (second compound 10 µM, first compound 0.3 µM) 0.22%
4.69 nM: IC50 (second compound 0.0316 µM)
inactive: viability, T/C (second compound 0.0316 µM, first compound 0.000949 µM) 119% | viability, T/C (second compound 0.0316 µM, first compound 0.003 µM) 77.7% | viability, T/C (second compound 0.1 µM, first compound 0.000949 µM) 97.5% | viability, T/C (second compound 0.1 µM, first compound 0.003 µM) 62.8% | viability, T/C (second compound 0.316 µM, first compound 0.000949 µM) 70.5% | viability, T/C (second compound 0.316 µM, first compound 0.003 µM) 39.5%
2.03 nM: IC50 (second compound 0.316 µM)

CC1(C)CCC(CN2CCN(c3ccc(C(=O)NS(=O)(=O)c4ccc(NCC5CCOCC5)c([N+](=O)[O-])c4)c(Oc4cnc5[nH]ccc5c4)c3)CC2)=C(c2ccc(Cl)cc2)C1 + CN1CCN(c2cc(C(=O)Nc3cc4cc(-c5cnn(C)c5)ccc4cn3)ccn2)CC1
inactive: viability, T/C (second compound 0.0316 µM, first compound 0.0316 µM) 107% | viability, T/C (second compound 0.0316 µM, first compound 0.1 µM) 92.1% | viability, T/C (second compound 0.0316 µM, first compound 0.316 µM) 99.5% | viability, T/C (second compound 0.0316 µM, first compound 1 µM) 104% | viability, T/C (second compound 0.0316 µM, first compound 3.16 µM) 111% | viability, T/C (second compound 0.0316 µM, first compound 10 µM) 41% | viability, T/C (second compound 0.1 µM, first compound 0.0316 µM) 93.1% | viability, T/C (second compound 0.1 µM, first compound 0.1 µM) 92.7% | viability, T/C (second compound 0.1 µM, first compound 0.316 µM) 91.3% | viability, T/C (second compound 0.1 µM, first compound 1 µM) 102% | viability, T/C (second compound 0.1 µM, first compound 3.16 µM) 92.1% | viability, T/C (second compound 0.1 µM, first compound 10 µM) 28.4% | viability, T/C (second compound 0.316 µM, first compound 0.0316 µM) 72.2% | viability, T/C (second compound 0.316 µM, first compound 0.1 µM) 70.9% | viability, T/C (second compound 0.316 µM, first compound 0.316 µM) 74.3% | viability, T/C (second compound 0.316 µM, first compound 1 µM) 71.2% | viability, T/C (second compound 0.316 µM, first compound 3.16 µM) 80.5% | viability, T/C (second compound 0.316 µM, first compound 10 µM) 21.6%
active: viability, T/C (second compound 1 µM, first compound 0.0316 µM) 5.73% | viability, T/C (second compound 1 µM, first compound 0.1 µM) 6.71% | viability, T/C (second compound 1 µM, first compound 0.316 µM) 6.34% | viability, T/C (second compound 1 µM, first compound 1 µM) 6.11% | viability, T/C (second compound 1 µM, first compound 3.16 µM) 7.84% | viability, T/C (second compound 1 µM, first compound 10 µM) 4.96% | viability, T/C (second compound 3.16 µM, first compound 0.0316 µM) 3.72% | viability, T/C (second compound 3.16 µM, first compound 0.1 µM) 2.29% | viability, T/C (second compound 3.16 µM, first compound 0.316 µM) 1.42% | viability, T/C (second compound 3.16 µM, first compound 1 µM) 3.37% | viability, T/C (second compound 3.16 µM, first compound 3.16 µM) 1.39% | viability, T/C (second compound 3.16 µM, first compound 10 µM) 1.49% | viability, T/C (second compound 10 µM, first compound 0.0316 µM) 2.97% | viability, T/C (second compound 10 µM, first compound 0.1 µM) 0.51% | viability, T/C (second compound 10 µM, first compound 0.316 µM) 2.24% | viability, T/C (second compound 10 µM, first compound 1 µM) 0.81% | viability, T/C (second compound 10 µM, first compound 3.16 µM) 0.61% | viability, T/C (second compound 10 µM, first compound 10 µM) 0.62%
< 31.6 nM: IC50 (second compound 1 µM) | IC50 (second compound 3.16 µM) | IC50 (second compound 10 µM)
8460 nM: IC50 (second compound 0.0316 µM)
6780 nM: IC50 (second compound 0.1 µM)
5350 nM: IC50 (second compound 0.316 µM)
